# Experimental data from paper PMC12272249, “Engineering high-efficiency matriptase substrates using E. coli display for applications in prodrug activation” (Cell Reports Methods, 2025).
# Several values for one entry are separate records, joined by “and”; a condition that tells them apart may be missing. Equal values may be shown once. Read-outs that look alike come from different tables or passages of the source.
# How the values were obtained:
# matriptase [1] = target: T1, matriptase (Homo sapiens, UniProt Q9Y5Y6); test: E. coli display cleavage reporter assay, flow cytometry, matriptase treatment; type: biochemical; details: for cleavage reporter signal of matriptase-treated compared to untreated cells / time to complete cleavage: E. coli-displayed substrate; for cleavage reporter signal of matriptase-treated compared to untreated cells: 100 nM matriptase, 30 min, 37°C, n = 3; for time to complete cleavage: flow cytometry; for relative cleavage efficiency group (high, medium, low): E. coli-displayed substrate, 1, 10, 25 and 50 nM matriptase over 90 min
# T1 construct: purchased R&D Systems (Bio-Techne) 3946-SEB
# T1 sequence (Q9Y5Y6 615-855 limits assumed): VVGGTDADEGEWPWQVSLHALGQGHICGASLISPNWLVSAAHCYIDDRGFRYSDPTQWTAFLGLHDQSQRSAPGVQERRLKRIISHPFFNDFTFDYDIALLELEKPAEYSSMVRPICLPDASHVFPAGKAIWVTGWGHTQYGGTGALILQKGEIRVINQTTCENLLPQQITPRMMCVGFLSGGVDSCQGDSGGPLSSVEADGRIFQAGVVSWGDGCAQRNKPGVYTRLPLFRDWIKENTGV
# matriptase [2] = target: T1, matriptase; test: Cleavage of soluble substrates in affibody-ABD format, SDS-PAGE; type: biochemical; details: 37°C; for cleavage: affibody-ABD fusion 50 μg/mL in PBS, SDS-PAGE densitometry (ImageJ)
# Experimental: Affibody-ABD substrates (50 μg/mL in PBS) were treated with 1, 10, or 50 nM matriptase at 37°C for 10, 30, or 60 min. Reactions were quenched by adding SDS loading buffer (31.2 mM Tris-HCl, pH 6.8, 1% SDS, 12.5% glycerol, 0.01% bromophenol blue, 5 mM TCEP) and heating at 90°C for 10 min. Samples were analyzed by SDS-PAGE as above. High-resolution gel images (600 dpi) were analyzed using ImageJ (v1.54i). Band intensities were quantified to assess the fraction of cleaved vs. intact substrate. Data were processed in Microsoft Excel and visualized with GraphPad Prism 10.
# legumain = target: T2, legumain (Homo sapiens, UniProt Q99538); test: FRET substrate stability against legumain; type: in vitro ADME; details: 30 μM Abz/Dnp peptide, 10 nM legumain, appropriate buffer, 37°C, 100 min (6,000 s), fluorescence, three replicates
# T2 construct: purchased R&D Systems (Bio-Techne) 2199-CY
# T2 sequence (Q99538 18-433): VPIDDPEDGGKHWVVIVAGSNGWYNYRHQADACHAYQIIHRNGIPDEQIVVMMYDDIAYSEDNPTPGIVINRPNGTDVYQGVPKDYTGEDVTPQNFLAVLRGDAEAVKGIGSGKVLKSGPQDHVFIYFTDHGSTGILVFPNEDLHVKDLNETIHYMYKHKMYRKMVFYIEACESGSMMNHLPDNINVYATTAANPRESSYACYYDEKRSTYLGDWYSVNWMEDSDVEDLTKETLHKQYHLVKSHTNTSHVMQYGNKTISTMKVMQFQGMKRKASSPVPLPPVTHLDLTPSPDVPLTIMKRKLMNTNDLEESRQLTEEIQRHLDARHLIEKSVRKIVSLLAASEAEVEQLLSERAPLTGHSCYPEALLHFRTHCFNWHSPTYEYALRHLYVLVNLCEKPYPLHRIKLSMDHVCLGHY
# Experimental: (§1) (cysteine protease), urokinase plasminogen[36] (uPA; serine protease), and MMP-2[37] (matrix metalloprotease), respectively.
# (§2) Initial velocity (V0) was calculated from early linear slopes. […] Fluorescence was recorded for 6000 s.
# [3] = target: urokinase-type plasminogen activator (uPA) (Homo sapiens, UniProt P00749); test: FRET substrate stability against uPA; type: in vitro ADME; details: 30 μM Abz/Dnp peptide, 10 nM uPA, appropriate buffer, 37°C, 100 min (6,000 s), fluorescence, three replicates
# Experimental: as §1, §2
# TEV protease = TEV protease (Tobacco etch virus, UniProt P04517); test: E. coli display cleavage reporter assay, flow cytometry, TEV protease treatment; details: E. coli-displayed substrate, 100 nM TEV, 30 min, 30°C, n = 3
# matriptase [4] = target: T1, matriptase; test: FRET-based kinetic analysis of matriptase cleavage; type: biochemical; details: 10 nM matriptase; for substrate cleavage by matriptase under identical conditions: 30 μM Abz/Dnp peptide, 37°C, 6,000 s, three replicates; for Vmax / Km / kcat/KM / kcat: Abz/Dnp-labelled 6-mer peptide, PBS, 37°C, n = 3; for Vmax / Km / kcat: Michaelis-Menten fit; for Vmax / kcat/KM / kcat: average ± SD; for kcat: serial dilution of substrate, 90 min, Ex 320/Em 420 nm
# matriptase [5] = target: T1, matriptase; type: biochemical
# matriptase [6] = target: T1, matriptase; details: previously reported value; cited from earlier work
# Experimental: The most promising newly discovered substrates (MtpB9, MtpC5, and MtpC9), along with control substrates, were chemically synthesized and linked to 2-aminobenzoyl (Abz) and 2,4-dinitrophenyl (Dnp), a standard fluorophore/quencher combination used in FRET assays (Figure 4A). A serial dilution of the substrates (ranging from 120 to 1.75 μM) was used to monitor matriptase cleavage activity. The reaction was tracked by measuring the Abz fluorescence continuously for 90 min. Kinetic parameters were calculated by fitting the cleavage rates to substrate concentrations using the Michaelis-Menten equati ...
# Chain of TEV protease (P04517 2038-2279): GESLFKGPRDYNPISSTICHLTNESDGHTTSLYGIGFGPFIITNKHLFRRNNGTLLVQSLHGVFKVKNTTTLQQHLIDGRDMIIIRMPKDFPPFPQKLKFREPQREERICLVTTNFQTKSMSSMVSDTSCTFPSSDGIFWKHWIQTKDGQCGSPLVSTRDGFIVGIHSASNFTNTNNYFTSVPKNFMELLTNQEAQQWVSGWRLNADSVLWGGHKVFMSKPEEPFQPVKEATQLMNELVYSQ
Substance,substrate cleavage by legumain (legumain),substrate cleavage by uPA [3],time to complete cleavage (matriptase [1]; 10 nM matriptase) [min],time to complete cleavage (matriptase [1]; 25 nM matriptase) [min],"relative cleavage efficiency group (high, medium, low) (matriptase [1])",substrate cleavage by matriptase under identical conditions (matriptase [4]),Vmax (matriptase [4]) [µM/s],Km (matriptase [4]) [µM],kcat/KM (matriptase [4]),kcat (matriptase [4]) [s⁻¹],time to complete cleavage (matriptase [5]) [min],other results
"ENLYFQG [TEV-control, reference compound]",No detectable cleavage,No detectable cleavage,–,–,–,–,–,–,–,–,–,"cleavage reporter signal of matriptase-treated compared to untreated cells (matriptase [1]): No significant difference; cleavage under any tested conditions (matriptase [2]; affibody-ABD fusion, 1, 10 or 50 nM matriptase, 10, 30 or 60 min, SDS-PAGE): no cleavage; cleavage reporter signal of TEV-treated compared to untreated cells (TEV protease): significantly lower signals"
GAKSRR [MtpB9],No detectable substrate cleavage,No detectable substrate cleavage,60,≤ 30,high,cleavage was observed,0.04 ± 0.0007,18.7,"2.3E+05 ± 3,948 M^−1 s^−1",4.4 ± 0.07,≤ 30,–
HYKGRK [MtpC9],No detectable substrate cleavage,No detectable substrate cleavage,60,≤ 30,high,cleavage was observed,0.06 ± 0.0021,29.1,"1.9E+05 ± 7,099 M^−1 s^−1",5.6 ± 0.21,≤ 30,–
LKRLMR [MtpA6],–,–,–,–,low,–,–,–,–,–,–,–
"LSGRSDNH [Mtp-control, reference compound]",No detectable cleavage,No detectable cleavage,–,–,–,–,0.02 ± 0.0057,191,"1.28E+04 ± 2,969 M^−1 s^−1 and 1.3E+04 ± 2,969 M^−1 s^−1",2.5 ± 0.57,–,"cleavage reporter signal of matriptase-treated compared to untreated cells (matriptase [1]): significantly lower signals; cleavage (matriptase [2]; 50 nM matriptase, 1 h): 96%; kcat/KM in the previous study (matriptase [6]): 2200 M⁻¹ s⁻¹; cleavage reporter signal of TEV-treated compared to untreated cells (TEV protease): No significant difference"
MGRSFY [MtpB11],–,–,–,–,medium,–,–,–,–,–,–,–
MKRKAR [MtpC10],–,–,–,–,medium,–,–,–,–,–,–,–
PFKRQL [MtpC12],–,–,–,–,low,–,–,–,–,–,–,–
VPRGRR [MtpC5],No detectable substrate cleavage,No detectable substrate cleavage,60,≤ 30,high,cleavage was observed,0.06 ± 0.0005,12.5,"5.13E+05 ± 3,910 M^−1 s^−1 and 5.1E+05 ± 3,910 M^−1 s^−1",6.4 ± 0.05,≤ 30,"cleavage (matriptase [2]; 1 nM matriptase, 10 min, two replicates): approximately 86%"
